Experimental data: the supplement of paper PMC10331698
± gives the standard deviation of the averaged measurements.

Columns and labels:
Assay in all cases: level (log10 ratio to DMSO vehicle control); higher = higher biomarker level / cell amount than vehicle control
Conditions in all cases: in DMSO
[1] = compound: O=P(O)(O)CCC(F)(F)C(F)(F)C(F)(F)C(F)(F)C(F)(F)C(F)(F)C(F)(F)C(F)(F)F [((Perfluorooctyl)ethyl)phosphonic acid]
Procedure: (§1)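 BioMAP Diversity Plus panel of 12 human primary cell co-culture systems (3C, 4H, LPS, SAg, BT, BF4T, BE3C, CASM3C, HDF3CGF, KF3CT, MyoF, Mphg). Compounds were added 1 h before stimulation and left for 24 h (MyoF 48 h; BT 72 h for soluble read-outs or 6 d for IgG). Biomarkers were read by ELISA, cytotoxicity by SRB, PBMC viability and proliferation by Alamar Blue. Each well value was divided by the mean of 8 DMSO control wells on the same plate and log10 transformed; duplicate blinded samples were tested at 4 concentrations.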

[2] = compound: O=S(=O)(O)C(F)(F)C(F)(F)C(F)(F)C(F)(F)F [Perfluorobutanesulfonic acid]
Procedure: as §1

[3] = compound: O=C(O)CCC(F)(F)C(F)(F)C(F)(F)F [3:3 Fluorotelomer carboxylic acid]
Procedure: as §1

1H,1H-Heptafluorobutanol = compound: OCC(F)(F)C(F)(F)C(F)(F)F [1H,1H-Heptafluorobutanol]
Procedure: as §1

[4] = compound: FC(F)(F)C(F)(F)C(F)(F)C(F)(F)C(F)(F)C(F)(F)C(F)(F)CCI [1-Iodo-1H,1H,2H,2H-perfluorononane]
Procedure: as §1

[5] = compound: C=CC(=O)OCCC(F)(F)C(F)(F)C(F)(F)C(F)(F)F [2-(Perfluorobutyl)ethyl acrylate]
Procedure: as §1

[6] = compound: C=C(C)C(=O)OCC(F)(F)C(F)(F)C(F)(F)C(F)(F)C(F)(F)C(F)(F)C(F)(F)F
Procedure: as §1

## CASM3C:HLA-DR
[1]; 6700 nM
  level (log10): -0.0265 ± 0.012
[1]; 20000 nM
  level (log10): -0.048
[1]; 60000 nM
  level (log10): -0.03 ± 0.081
[2]; 6700 nM
  level (log10): -0.0085 ± 0.0035
[2]; 20000 nM
  level (log10): -0.0075 ± 0.00071
[2]; 60000 nM
  level (log10): -0.0025 ± 0.0078
[3]; 6700 nM
  level (log10): 0.007 ± 0.0085
[3]; 20000 nM
  level (log10): 0.006 ± 0.023
[3]; 60000 nM
  level (log10): -0.009 ± 0.028
1H,1H-Heptafluorobutanol; 6700 nM
  level (log10): 0.015 ± 0.0057
1H,1H-Heptafluorobutanol; 20000 nM
  level (log10): -0.004 ± 0.0028
1H,1H-Heptafluorobutanol; 60000 nM
  level (log10): 0.011 ± 0.0028
[4]; 6700 nM
  level (log10): 0.0055 ± 0.0064
[4]; 20000 nM
  level (log10): -0.007 ± 0.0071
[5]; 6700 nM
  level (log10): -0.0245 ± 0.025
[5]; 20000 nM
  level (log10): -0.017 ± 0.014
[5]; 60000 nM
  level (log10): -0.0205 ± 0.011
[6]; 6700 nM
  level (log10): -0.015 ± 0.017
[6]; 20000 nM
  level (log10): -0.0125 ± 0.0021

## CASM3C:IL-6
[1]; 6700 nM
  level (log10): -0.0215 ± 0.06
[1]; 20000 nM
  level (log10): -0.004 ± 0.025
[1]; 60000 nM
  level (log10): 0.0865 ± 0.032
[2]; 6700 nM
  level (log10): -0.032 ± 0.028
[2]; 20000 nM
  level (log10): -0.0375 ± 0.0021
[2]; 60000 nM
  level (log10): -0.015 ± 0.0057
[3]; 6700 nM
  level (log10): -0.029 ± 0.016
[3]; 20000 nM
  level (log10): -0.0295 ± 0.015
[3]; 60000 nM
  level (log10): 0.0085 ± 0.018
1H,1H-Heptafluorobutanol; 6700 nM
  level (log10): 0 ± 0.033
1H,1H-Heptafluorobutanol; 20000 nM
  level (log10): -0.0125 ± 0.011
1H,1H-Heptafluorobutanol; 60000 nM
  level (log10): 0.018 ± 0.042
[4]; 6700 nM
  level (log10): -0.0105 ± 0.013
[4]; 20000 nM
  level (log10): 0.0315 ± 0.056
[5]; 6700 nM
  level (log10): -0.023 ± 0.0014
[5]; 20000 nM
  level (log10): -0.0425 ± 0.0021
[5]; 60000 nM
  level (log10): -0.076 ± 0.034
[6]; 6700 nM
  level (log10): -0.0235 ± 0.0092
[6]; 20000 nM
  level (log10): 0.015 ± 0.013

## CASM3C:LDLR
[1]; 6700 nM
  level (log10): -0.0075 ± 0.0021
[1]; 20000 nM
  level (log10): -0.005 ± 0.0042
[1]; 60000 nM
  level (log10): 0.0505 ± 0.039
[2]; 6700 nM
  level (log10): -0.0305 ± 0.0035
[2]; 20000 nM
  level (log10): -0.0255 ± 0.025
[2]; 60000 nM
  level (log10): -0.0345 ± 0.053
[3]; 6700 nM
  level (log10): -0.0165 ± 0.00071
[3]; 20000 nM
  level (log10): -0.0105 ± 0.0035
[3]; 60000 nM
  level (log10): 0.011 ± 0.027
1H,1H-Heptafluorobutanol; 6700 nM
  level (log10): -0.0025 ± 0.0035
1H,1H-Heptafluorobutanol; 20000 nM
  level (log10): 0.012 ± 0.011
1H,1H-Heptafluorobutanol; 60000 nM
  level (log10): 0.006 ± 0.03
[4]; 6700 nM
  level (log10): -0.016 ± 0.021
[4]; 20000 nM
  level (log10): 0.026 ± 0.024
[5]; 6700 nM
  level (log10): -0.013 ± 0.0099
[5]; 20000 nM
  level (log10): -0.0105 ± 0.0021
[5]; 60000 nM
  level (log10): 0.01 ± 0.042
[6]; 6700 nM
  level (log10): -0.0135 ± 0.0021
[6]; 20000 nM
  level (log10): 0.03 ± 0.024

## CASM3C:M-CSF
[1]; 6700 nM
  level (log10): -0.0145 ± 0.011
[1]; 20000 nM
  level (log10): -0.008 ± 0.011
[1]; 60000 nM
  level (log10): 0.045 ± 0.04
[2]; 6700 nM
  level (log10): -0.007 ± 0.031
[2]; 20000 nM
  level (log10): -0.002
[2]; 60000 nM
  level (log10): 0.0025 ± 0.011
[3]; 6700 nM
  level (log10): -0.0055 ± 0.037
[3]; 20000 nM
  level (log10): -0.02 ± 0.018
[3]; 60000 nM
  level (log10): 0.0185 ± 0.028
1H,1H-Heptafluorobutanol; 6700 nM
  level (log10): 0.006 ± 0.021
1H,1H-Heptafluorobutanol; 20000 nM
  level (log10): 0.03 ± 0.041
1H,1H-Heptafluorobutanol; 60000 nM
  level (log10): 0.038 ± 0.016
[4]; 6700 nM
  level (log10): -0.0035 ± 0.0078
[4]; 20000 nM
  level (log10): 0.0125 ± 0.028
[5]; 6700 nM
  level (log10): -0.0165 ± 0.019
[5]; 20000 nM
  level (log10): -0.0355 ± 0.022
[5]; 60000 nM
  level (log10): -0.021 ± 0.044
[6]; 6700 nM
  level (log10): -0.0155 ± 0.0092
[6]; 20000 nM
  level (log10): 0.0165 ± 0.03

## CASM3C:PAI-I
[1]; 6700 nM
  level (log10): -0.0035 ± 0.011
[1]; 20000 nM
  level (log10): 0.003 ± 0.0071
[1]; 60000 nM
  level (log10): 0.0015 ± 0.0078
[2]; 6700 nM
  level (log10): -0.0095 ± 0.012
[2]; 20000 nM
  level (log10): 0.0035 ± 0.0064
[2]; 60000 nM
  level (log10): 0.007 ± 0.0099
[3]; 6700 nM
  level (log10): -0.002 ± 0.0057
[3]; 20000 nM
  level (log10): -0.0035 ± 0.00071
[3]; 60000 nM
  level (log10): 0.009 ± 0.0014
1H,1H-Heptafluorobutanol; 6700 nM
  level (log10): 0.0015 ± 0.0092
1H,1H-Heptafluorobutanol; 20000 nM
  level (log10): -0.0045 ± 0.00071
1H,1H-Heptafluorobutanol; 60000 nM
  level (log10): 0.009 ± 0.0042
[4]; 6700 nM
  level (log10): 0.0015 ± 0.00071
[4]; 20000 nM
  level (log10): 0.0035 ± 0.00071
[5]; 6700 nM
  level (log10): 0.0105 ± 0.021
[5]; 20000 nM
  level (log10): -0.0035 ± 0.011
[5]; 60000 nM
  level (log10): 0 ± 0.013
[6]; 6700 nM
  level (log10): -0.005 ± 0.0014
[6]; 20000 nM
  level (log10): -0.005 ± 0.0028

## CASM3C:Proliferation
[1]; 6700 nM
  level (log10): -0.0545 ± 0.005
[1]; 20000 nM
  level (log10): -0.062 ± 0.044
[1]; 60000 nM
  level (log10): -0.101 ± 0.03
[2]; 6700 nM
  level (log10): -0.0455 ± 0.044
[2]; 20000 nM
  level (log10): -0.0405 ± 0.013
[2]; 60000 nM
  level (log10): -0.019 ± 0.017
[3]; 6700 nM
  level (log10): -0.01 ± 0.011
[3]; 20000 nM
  level (log10): 0.005 ± 0.0042
[3]; 60000 nM
  level (log10): 0.0005 ± 0.022
1H,1H-Heptafluorobutanol; 6700 nM
  level (log10): -0.005 ± 0.014
1H,1H-Heptafluorobutanol; 20000 nM
  level (log10): 0.0045 ± 0.025
1H,1H-Heptafluorobutanol; 60000 nM
  level (log10): 0.024 ± 0.055
[4]; 6700 nM
  level (log10): -0.001
[4]; 20000 nM
  level (log10): 0.0105 ± 0.04
[5]; 6700 nM
  level (log10): -0.0375 ± 0.06
[5]; 20000 nM
  level (log10): -0.0315 ± 0.069
[5]; 60000 nM
  level (log10): -0.123 ± 0.084
[6]; 6700 nM
  level (log10): 0.0065 ± 0.033
[6]; 20000 nM
  level (log10): -0.022 ± 0.018

## CASM3C:SRB
[1]; 6700 nM
  level (log10): -0.0115 ± 0.0035
[1]; 20000 nM
  level (log10): -0.017 ± 0.0028
[1]; 60000 nM
  level (log10): -0.008 ± 0.0085
[2]; 6700 nM
  level (log10): -0.0045 ± 0.0035
[2]; 20000 nM
  level (log10): -0.0045 ± 0.0035
[2]; 60000 nM
  level (log10): -0.008 ± 0.0028
[3]; 6700 nM
  level (log10): 0.005 ± 0.016
[3]; 20000 nM
  level (log10): 0.002 ± 0.014
[3]; 60000 nM
  level (log10): -0.0055 ± 0.011
1H,1H-Heptafluorobutanol; 6700 nM
  level (log10): -0.0025 ± 0.0092
1H,1H-Heptafluorobutanol; 20000 nM
  level (log10): 0.0125 ± 0.0021
1H,1H-Heptafluorobutanol; 60000 nM
  level (log10): 0.009 ± 0.0028
[4]; 6700 nM
  level (log10): -0.0025 ± 0.0021
[4]; 20000 nM
  level (log10): -0.0015 ± 0.0064
[5]; 6700 nM
  level (log10): 0.0015 ± 0.0021
[5]; 20000 nM
  level (log10): 0.0055 ± 0.005
[5]; 60000 nM
  level (log10): 0.0005 ± 0.00071
[6]; 6700 nM
  level (log10): -0.0005 ± 0.00071
[6]; 20000 nM
  level (log10): 0 ± 0.0071
